We go through 12 compounds from ChEMBL document CHEMBL3632488, “Discovery of potent and selective cytotoxic activity of new quinazoline-ureas against TMZ-resistant glioblastoma multiforme (GBM)” (Eur J Med Chem, 2015).

Calls of active or inactive are those of the source. The rule behind the calls is not given here.

Assay [1] is described as follows: Cytotoxicity against normal human astrocytes assessed as cell viability incubated for 72 hrs by WST-1 method. In kind it is cell-based. The settings on record: Astrocyte.
Assay [2] deals with Translocator protein (Rattus norvegicus) (UniProt P16257). Briefly: Displacement of [3H]PK11195 from TSPO receptor in Sprague-Dawley rat cerebral cortex membrane at 1 uM by radiometric competitive assay. In kind it is tissue-based. A general note: Loss of bound radioactivity is the signal in a displacement assay; it reports binding, not function.
The nature of assay [3]: Antiproliferative activity against human GBM1 cells assessed as reduction in cell viability incubated for 72 hrs by WST-1 method. The settings on record: GBM1, 72 h. In kind it is functional, cell-based. In general terms: Tetrazolium assays rely on reduction of a dye to a coloured formazan, in cell work by metabolically active cells.
Assay [4] in a line: Selectivity index, ratio of IC50 for normal human astrocytes to IC50 for human GBM3 cells.
The nature of assay [5]: Antiproliferative activity against human GBM3 cells assessed as reduction in cell viability at 10 uM incubated for 72 hrs by WST-1 method. In kind it is functional. The settings on record: GBM3, 72 h.
Assay [6] can be described thus: Antiproliferative activity against human GBM2 cells assessed as reduction in cell viability incubated for 72 hrs by WST-1 method. It is filed as functional, cell-based. The settings on record: GBM2, 72 h.
In assay [7] the target is Translocator protein (Rattus norvegicus) (UniProt P16257). In words: Displacement of [3H]PK11195 from TSPO receptor in Sprague-Dawley rat cerebral cortex membrane at 10 uM by radiometric competitive assay. In kind it is tissue-based.
The target is the same in assay [8]. In words: Displacement of [3H]PK11195 from TSPO receptor in Sprague-Dawley rat cerebral cortex membrane at 100 nM by radiometric competitive assay. In kind it is tissue-based.
The target is the same in assay [9]. In words: Displacement of [3H]PK11195 from TSPO receptor in Sprague-Dawley rat cerebral cortex membrane at 1 nM by radiometric competitive assay. In kind it is tissue-based.
The nature of assay [10]: Antiproliferative activity against human GBM1 cells assessed as reduction in cell viability at 10 uM incubated for 72 hrs by WST-1 method. In kind it is functional. The settings on record: GBM1, 72 h.
For another assay, the target named is Translocator protein (Rattus norvegicus, UniProt P16257). In words: Displacement of [3H]PK11195 from TSPO receptor in Sprague-Dawley rat cerebral cortex membrane by radiometric competitive assay. In kind it is tissue-based.
Assay [11] can be described thus: Selectivity index, ratio of IC50 for normal human astrocytes to IC50 for human GBM1 cells.
A short description of assay [12]: Antiproliferative activity against human GBM3 cells assessed as reduction in cell viability incubated for 72 hrs by WST-1 method. In kind it is functional, cell-based. The settings on record: GBM3, 72 h.
Assay [13] is described as follows: Selectivity index, ratio of IC50 for normal human astrocytes to IC50 for human GBM2 cells.
The target of assay [14] is Translocator protein (Rattus norvegicus) (UniProt P16257). In words: Displacement of [3H]PK11195 from TSPO receptor in Sprague-Dawley rat cerebral cortex membrane at 10 nM by radiometric competitive assay. In kind it is tissue-based.
A short description of assay [15]: Antiproliferative activity against human GBM2 cells assessed as reduction in cell viability at 10 uM incubated for 72 hrs by WST-1 method. It is filed as functional. The settings on record: GBM2, 72 h.
A further assay has as its system GBM1. Briefly: Induction of apoptosis in human GBM1 cells assessed as loss of mitochondrial membrane potential at 10 uM after 2 hrs by JC-1 staining based fluorescence microscopy. It is filed as functional, cell-based.
Assay [16] has as its system GBM. Briefly: Tumoricidal effect in patient derived GBM 025T cells assessed as reduction in neurosphere formation at 20 uM after 1 to 2 weeks by 3D tumor clonogenic assay. In kind it is functional, cell-based. The settings on record: Homo sapiens.
In assay [17] the test system is GBM. In words: Tumoricidal effect in patient derived GBM 464T cells assessed as reduction in neurosphere formation at 20 uM after 1 to 2 weeks by 3D tumor clonogenic assay. The settings on record: Homo sapiens. In kind it is functional, cell-based.
Assay [18] deals with GBM. Briefly: Tumoricidal effect in patient derived GBM 096T cells assessed as reduction in neurosphere formation at 20 uM after 1 to 2 weeks by 3D tumor clonogenic assay. In kind it is functional, cell-based. The settings on record: Homo sapiens.
Assay [19] relates to GBM. Briefly: Tumoricidal effect in patient derived GBM 047T cells assessed as reduction in neurosphere formation at 20 uM after 1 to 2 weeks by 3D tumor clonogenic assay. In kind it is functional, cell-based. The settings on record: Homo sapiens.
Assay [20] concerns GBM. In words: Tumoricidal effect in patient derived GBM 448T cells assessed as reduction in neurosphere formation at 20 uM after 1 to 2 weeks by 3D tumor clonogenic assay. In kind it is functional, cell-based. The settings on record: Homo sapiens.
Assay [21] has as its target Translocator protein (Rattus norvegicus) (UniProt P16257). The settings on record: Sprague-Dawley, Cerebral cortex, Membrane, 0.1 nM.

Consider `O=C(Nc1cc2ncncc2cc1OCc1cccc(F)c1)Nc1cccc2ccccc12`, for which the IC50 was above 10000 nM in assay [1]; 1300 nM in assay [3]; 1400 nM in assay [6]; 703 nM on Translocator protein; 1200 nM in assay [12]. In addition, the inhibition worked out at 53% in [2]; 75% in [7]; 34% in assay [8]; 3% in assay [9]; 9% in assay [14]. Besides, the “Ratio IC50” value in assay [4], in assay [11] and in assay [13] was above 7.7 throughout. The values for the inhibition at 10 µM in assay [5], in [10] and in [15] were 92.9%, 92.6% and 94.9%, respectively. In the assay with GBM1, the result was Active.

For `Cn1nnc2c(C(N)=O)ncn2c1=O`, the result with GBM [16], in the assay with GBM [18] and with GBM [20] was inactive. The outcome in the assay on GBM [17] and in the assay on GBM [19] was Active.

As for `CCC(C)N(C)C(=O)c1cc2ccccc2c(-c2ccccc2Cl)n1` (centres undefined), the inhibition in assay [2] is 100%; in assay [8] it was 90%; in assay [9], 7%; in assay [21], 0%; in assay [14] it was 45%.

With `O=C(Nc1cccc(Cl)c1)Nc1cc2ncncc2cc1OCc1ccccc1Cl`, the IC50 is above 10000 nM in [1]; 2600 nM in assay [3]; 2100 nM in assay [6]; 2790 nM on Translocator protein; 2800 nM in assay [12]. For the same compound, the inhibition in assay [2] was 23%; in [7], 80%; in [8] it was 14%; in assay [9], 2%; in assay [14], 6%. Also, the “Ratio IC50” value in assay [4], in assay [11] and in assay [13] was above 4 in each case. Further, the inhibition at 10 µM in assay [5] turned out to be 103%; in assay [10], 78.5%; in [15], 97.2%. Besides, the result in the assay on GBM1 was Active.

For the compound `CC[C@@]1(O)C(=O)OCc2c1cc1n(c2=O)Cc2cc3c(CN(C)C)c(O)ccc3nc2-1` [TOPOTECAN], the IC50 in assay [1] was 160 nM; in [3] it was 460 nM; in assay [6], 130 nM; in [12] it was 380 nM. The “Ratio IC50” value in [4], in [11] and in assay [13] was 0.5 each time. Further, the inhibition at 10 µM in assay [5] was 88.7%; in [10], 88.7%; in [15], 97.8%.

On to `O=C(Nc1cccc(F)c1)Nc1cc2ncncc2cc1OCc1cccc(Cl)c1`, for which the concentration for half-maximal inhibition (IC50) was above 10000 nM in assay [1], 3700 nM in assay [3], 7800 nM in assay [6] and 8300 nM in assay [12]. Also, the “Ratio IC50” value in [4], in [11] and in assay [13] was above 1.5 throughout. The inhibition at 10 µM in assay [5] was 54.5%; in assay [10], 73.2%; in assay [15], 76.3%.

Turning to `CN1C(=O)CN=C(c2ccccc2)c2cc(Cl)ccc21`, the inhibition was 85% in assay [2]; 97% in [7]; 34% in assay [8]; 0% in assay [9]; 2% in [14].

As to `N#CC(C#N)=NNc1cccc(Cl)c1`, in the assay with GBM1, the result was Active.

As to `O=C(Nc1ccc(Cl)c(Cl)c1)Nc1cc2ncncc2cc1OCc1cccc(F)c1`, the half-inhibitory concentration (IC50) was found to be 7400 nM in assay [1]; 2100 nM in assay [3]; 1500 nM in [6]; 1320 nM at Translocator protein; 2000 nM in assay [12]. Further, the inhibition amounted to 42% in assay [2]; 86% in [7]; 16% in assay [8]; 3% in assay [9]; 8% in [14]. In addition, the “Ratio IC50” value in assay [4], in assay [11] and in assay [13] was 4 each time. Besides, the inhibition at 10 µM was determined as 104% in assay [5], 98.6% in assay [10] and 99.1% in [15]. Moreover, the outcome with GBM1 was Active.

As to `O=C(Nc1ccc(C(F)(F)F)cc1)Nc1cc2ncncc2cc1OCc1ccccc1`, the IC50 is 9200 nM in assay [1], 5700 nM in [3], 8600 nM in [6] and 3700 nM in assay [12]. In addition, the “Ratio IC50” value in assay [4], in assay [11] and in [13] was 1.5 each time. Moreover, the inhibition at 10 µM in assay [5] worked out at 99.1%; in assay [10], 92.2%; in [15], 95.2%.

Take `O=C(Nc1ccccc1F)Nc1cc2ncncc2cc1OCc1ccccc1`: the IC50 is above 10000 nM in assay [1], 6100 nM in [3], 4500 nM in assay [6] and 5900 nM in assay [12]. Besides, the “Ratio IC50” value in assay [4], in [11] and in assay [13] was above 1.8 in each case. Also, the inhibition at 10 µM came to 75.5% in assay [5], 72% in assay [10] and 83.7% in assay [15].

Regarding `O=C(Nc1ccc(Cl)c(Cl)c1)Nc1cc2ncncc2cc1OCc1ccccc1Cl`, the IC50 is above 10000 nM in assay [1]; 1800 nM in [3]; 1300 nM in assay [6]; 447 nM on Translocator protein; 1200 nM in assay [12]. In addition, the inhibition in assay [2] is 57%; in assay [7], 84%; in [8], 37%; in assay [9], 1%; in [14], 19%. In addition, the “Ratio IC50” value in assay [4], in assay [11] and in assay [13] was above 7 in each case. Further, the inhibition at 10 µM in assay [5] was 104%; in [10], 87.5%; in assay [15], 98.9%. Besides, the outcome with GBM1 was Active.

As a reminder, the IC50 is the concentration needed to halve the response being measured. In general, inhibition refers to the relative decrease from the control value, in per cent.
